Results on 25 compounds are retold here after ChEMBL document CHEMBL1152321, “Recent advances in the chemistry and biology of new generation taxoids” (J Nat Prod, 2009).

Test [1] can be described thus: Cytotoxicity against P-glycoprotein deficient wild type human LCC-6 cells after 72 hrs. The format is functional, cell-based. The note with it: LCC-6, 72 h.
Test [2] is described as follows: Resistance factor, ratio of IC50 for human LCC-6 cells expressing P-glycoprotein to IC50 for P-glycoprotein deficient wild type human LCC-6 cells. The format is functional. Further details: reference not given here.
Test [3] deals with MCF7. Nature of the test: Resistance factor, ratio of IC50 for P-glycoprotein deficient wild type human MCF7 cells to IC50 for multidrug-resistant human NCI/ADR cells. The format is functional.
The test system of test [4] is MCF7. Nature of the test: Cytotoxicity against P-glycoprotein deficient wild type human MCF7 cells after 72 hrs. The format is functional, cell-based. The note with it: MCF7, 72 h.
The subject of the next test is PANC-1. Nature of the test: Cytotoxicity against human PANC1 cells expressing mdr1, mrp1, mrp2, lrp genes after 72 hrs. The format is functional, cell-based. The note with it: PANC-1, 72 h.
For test [5], the system named is MCF7. Nature of the test: Cytotoxicity against human MCF7 cells expressing P-glycoprotein after 72 hrs. It counts as functional, cell-based. The note with it: MCF7, 72 h.
Test [6] relates to MCF7. Nature of the test: Resistance factor, ratio of IC50 for human MCF7 cells expressing P-glycoprotein to IC50 for P-glycoprotein deficient wild type human MCF7 cells. The format is functional.
The subject of the next test is HT-29. Nature of the test: Cytotoxicity against human HT-29 cells after 72 hrs. It counts as functional, cell-based. The note with it: HT-29, 72 h.

pIC50: −log10 of the molar value.

For orientation: pIC50 means −log10 of the IC50, conventionally taken in molar units. In the case of `CCC(=O)O[C@H]1C(=O)[C@@]2(C)[C@H]([C@H](OC(=O)c3ccccc3)[C@]3(O)C[C@H](OC(=O)[C@H](O)[C@H](C=C(C)C)NC(=O)C4CCC4)C(C)=C1C3(C)C)[C@]1(OC(C)=O)CO[C@@H]1C[C@@H]2O`, in test [1], the pIC50 was 8.89. Moreover, the Ratio in test [2] amounted to 26; in the test on MCF7 [3], 34.
With `CCC(=O)O[C@H]1C(=O)[C@@]2(C)[C@H]([C@H](OC(=O)c3ccccc3)[C@]3(O)C[C@H](OC(=O)[C@H](O)[C@H](C=C(C)C)NC(=O)C4CCCCC4)C(C)=C1C3(C)C)[C@]1(OC(C)=O)CO[C@@H]1C[C@@H]2O`, the pIC50 in test [1] was 8.89. The Ratio in test [2] was found to be 10; in the test with MCF7 [3] it was 18.
For the compound `CC(=O)O[C@@]12CO[C@@H]1C[C@H](O)[C@@]1(C)C(=O)[C@H](OC(=O)N(C)C)C3=C(C)[C@@H](OC(=O)[C@H](O)[C@H](C=C(F)F)NC(=O)OC(C)(C)C)C[C@@](O)([C@@H](OC(=O)c4ccccc4)[C@H]21)C3(C)C`, the pIC50 is 9.89 in the test with MCF7 [4], 8.80 with PANC-1, 8.37 in the test with MCF7 [5] and 9.34 with HT-29. The Ratio in the test on MCF7 [6] is 33.
`CCC(=O)O[C@H]1C(=O)[C@@]2(C)[C@H]([C@H](OC(=O)c3cccc(OC)c3)[C@]3(O)C[C@H](OC(=O)[C@H](O)[C@H](CC(C)C)NC(=O)C4CC4)C(C)=C1C3(C)C)[C@]1(OC(C)=O)CO[C@@H]1C[C@@H]2O` gave a pIC50 in test [1] of 9.22. For the same compound, the results for the Ratio (in test [2]; with MCF7 [3]) were 22 and 30, respectively.
Regarding `CCC(=O)O[C@H]1C(=O)[C@@]2(C)[C@H]([C@H](OC(=O)c3cccc(OC)c3)[C@]3(O)C[C@H](OC(=O)[C@H](O)[C@H](C=C(C)C)NC(=O)C4CCCC4)C(C)=C1C3(C)C)[C@]1(OC(C)=O)CO[C@@H]1C[C@@H]2O`, the pIC50 in test [1] is 8.96. Further, the Ratio in test [2] came out at 10; in the test on MCF7 [3] it was 32.
Turning to `CCC(=O)O[C@H]1C(=O)[C@@]2(C)[C@H]([C@H](OC(=O)c3ccccc3)[C@]3(O)C[C@H](OC(=O)[C@H](O)[C@H](C=C(F)F)NC(=O)OC(C)(C)C)C(C)=C1C3(C)C)[C@]1(OC(C)=O)CO[C@@H]1C[C@@H]2O`, the pIC50 in the test with MCF7 [4] was 9.92; with PANC-1, 9.19; in the test with MCF7 [5] it was 8.92; in the test on HT-29 it was 9.47. Further, in the test on MCF7 [6], the Ratio turned out to be 10.
The compound `CCC(=O)O[C@H]1C(=O)[C@@]2(C)[C@H]([C@H](OC(=O)c3cccc(OC)c3)[C@]3(O)C[C@H](OC(=O)[C@H](O)[C@H](C=C(C)C)NC(=O)C4CC4)C(C)=C1C3(C)C)[C@]1(OC(C)=O)CO[C@@H]1C[C@@H]2O` had a negative logarithm of the IC50 (pIC50) in test [1] of 8.96. Besides, the Ratio came out at 16 in test [2] and 15.6 in the test with MCF7 [3].
Take `CCC(=O)O[C@H]1C(=O)[C@@]2(C)[C@H]([C@H](OC(=O)c3ccccc3)[C@]3(O)C[C@H](OC(=O)[C@H](O)[C@H](C=C(C)C)NC(=O)C4CCCC4)C(C)=C1C3(C)C)[C@]1(OC(C)=O)CO[C@@H]1C[C@@H]2O`: the pIC50 in test [1] is 8.96. For the same compound, the Ratio in test [2] turned out to be 17; in the test on MCF7 [3], 20.
Compound `CCC(=O)O[C@H]1C(=O)[C@@]2(C)[C@H]([C@H](OC(=O)c3ccccc3)[C@]3(O)C[C@H](OC(=O)[C@H](O)[C@H](CC(C)C)NC(=O)C4CCCC4)C(C)=C1C3(C)C)[C@]1(OC(C)=O)CO[C@@H]1C[C@@H]2O` showed a pIC50 in test [1] of 8.20. The Ratio in test [2] came to 10; in the test with MCF7 [3], 12.
Compound `CCC(=O)O[C@H]1C(=O)[C@@]2(C)[C@H]([C@H](OC(=O)c3ccccc3)[C@]3(O)C[C@H](OC(=O)[C@H](O)[C@H](CC(C)C)NC(=O)C4CCCCC4)C(C)=C1C3(C)C)[C@]1(OC(C)=O)CO[C@@H]1C[C@@H]2O` showed a pIC50 in test [1] of 8.24. For the same compound, the Ratio was determined as 5.5 in test [2] and 13 in the test on MCF7 [3].
For the compound `COc1ccc(CC(=O)O[C@H]2C(=O)[C@@]3(C)[C@H]([C@H](OC(=O)c4cccc(OC)c4)[C@]4(O)C[C@H](OC(=O)[C@H](O)[C@H](C=C(C)C)NC(=O)OC(C)(C)C)C(C)=C2C4(C)C)[C@]2(OC(C)=O)CO[C@@H]2C[C@@H]3O)cc1`, the pIC50 in test [1] was 9.40. For the same compound, the Ratio is recorded as 1 in test [2] and 3 in the test on MCF7 [3].
In the same order, the values of `CCC(=O)O[C@H]1C(=O)[C@@]2(C)[C@H]([C@H](OC(=O)c3cccc(OC)c3)[C@]3(O)C[C@H](OC(=O)[C@H](O)[C@H](CC(C)C)NC(=O)C4CCCCC4)C(C)=C1C3(C)C)[C@]1(OC(C)=O)CO[C@@H]1C[C@@H]2O` are 9.00, 12 and 9.3.
For the compound `CCC(=O)O[C@H]1C(=O)[C@@]2(C)[C@H]([C@H](OC(=O)c3ccccc3)[C@]3(O)C[C@H](OC(=O)[C@H](O)[C@H](C=C(C)C)NC(=O)C4=CCCC4)C(C)=C1C3(C)C)[C@]1(OC(C)=O)CO[C@@H]1C[C@@H]2O`, in test [1], the pIC50 is 8.92. The Ratio turned out to be 12 in test [2] and 15 in the test on MCF7 [3].
`CCC(=O)O[C@H]1C(=O)[C@@]2(C)[C@H]([C@H](OC(=O)c3ccccc3)[C@]3(O)C[C@H](OC(=O)[C@H](O)[C@H](CC(C)C)NC(=O)OC4CCCCC4)C(C)=C1C3(C)C)[C@]1(OC(C)=O)CO[C@@H]1C[C@@H]2O` gave a pIC50 in test [1] of 8.32. Besides, the Ratio is recorded as 3.8 in test [2] and 10 with MCF7 [3].
For the compound `CC(=O)O[C@H]1C(=O)[C@@]2(C)[C@H]([C@H](OC(=O)c3ccccc3)[C@]3(O)C[C@H](OC(=O)[C@H](O)[C@H](C=C(F)F)NC(=O)OC(C)(C)C)C(C)=C1C3(C)C)[C@]1(OC(C)=O)CO[C@@H]1C[C@@H]2O`, the pIC50 in the test with MCF7 [4] was 10.00; in the test with PANC-1, 8.92; in the test with MCF7 [5], 9.02; in the test on HT-29, 9.39. Also, the Ratio with MCF7 [6] is given as 9.6.
Take `C=CC[C@H](NC(=O)OC(C)(C)C)[C@@H](O)C(=O)O[C@H]1C[C@@]2(O)[C@@H](OC(=O)c3cccc(OC)c3)[C@@H]3[C@]4(OC(C)=O)CO[C@@H]4C[C@H](O)[C@@]3(C)C(=O)[C@H](OC(=O)CC)C(=C1C)C2(C)C`: the pIC50 in test [1] was 8.92. Further, the Ratio in test [2] was 7; with MCF7 [3] it was 10.9.
In turn, `COC(=O)O[C@H]1C(=O)[C@@]2(C)[C@H]([C@H](OC(=O)c3cccc(OC)c3)[C@]3(O)C[C@H](OC(=O)[C@H](O)[C@H](C=C(C)C)NC(=O)OC(C)(C)C)C(C)=C1C3(C)C)[C@]1(OC(C)=O)CO[C@@H]1C[C@@H]2O` had a pIC50 in test [1] of 9.22. The Ratio in test [2] was 2.7; with MCF7 [3], 3.5.
For `CCC(=O)O[C@H]1C(=O)[C@@]2(C)[C@H]([C@H](OC(=O)c3cccc(OC)c3)[C@]3(O)C[C@H](OC(=O)[C@H](O)[C@H](CC(C)C)NC(=O)OC4CCCC4)C(C)=C1C3(C)C)[C@]1(OC(C)=O)CO[C@@H]1C[C@@H]2O` the same measures were 9.12, 3.4 and 6.9.
Take `COc1cccc(C(=O)O[C@H]2[C@@H]3[C@]4(OC(C)=O)CO[C@@H]4C[C@H](O)[C@@]3(C)C(=O)[C@H](OC(=O)OCc3ccccc3)C3=C(C)[C@@H](OC(=O)[C@H](O)[C@H](C=C(C)C)NC(=O)OC(C)(C)C)C[C@]2(O)C3(C)C)c1`: the pIC50 in test [1] was 8.92. Also, the figures for the Ratio (in test [2]; with MCF7 [3]) were 1.5 and 7.5, respectively.
In test [1], `CCC(=O)O[C@H]1C(=O)[C@@]2(C)[C@H]([C@H](OC(=O)c3ccccc3)[C@]3(O)C[C@H](OC(=O)[C@H](O)[C@H](CC(C)C)NC(=O)OC4CCCC4)C(C)=C1C3(C)C)[C@]1(OC(C)=O)CO[C@@H]1C[C@@H]2O` showed a pIC50 of 8.59. The Ratio was 5.4 in test [2] and 6.8 in the test on MCF7 [3].
Consider `COc1cccc(C(=O)O[C@H]2[C@@H]3[C@]4(OC(C)=O)CO[C@@H]4C[C@H](O)[C@@]3(C)C(=O)[C@H](OC(=O)c3ccccc3OC)C3=C(C)[C@@H](OC(=O)[C@H](O)[C@H](C=C(C)C)NC(=O)OC(C)(C)C)C[C@]2(O)C3(C)C)c1`, for which, in test [1], the pIC50 is 9.40. Besides, the Ratio in test [2] turned out to be 2.3; in the test on MCF7 [3] it was 3.
`CCC(=O)O[C@H]1C(=O)[C@@]2(C)[C@H]([C@H](OC(=O)c3cccc(OC)c3)[C@]3(O)C[C@H](OC(=O)[C@H](O)[C@H](C=C(C)C)NC(=O)C4CCC4)C(C)=C1C3(C)C)[C@]1(OC(C)=O)CO[C@@H]1C[C@@H]2O`: the pIC50 in test [1] is 8.80. In addition, the Ratio is 9.4 in test [2] and 11 with MCF7 [3].
Compound `C=CCC[C@H](NC(=O)OC(C)(C)C)[C@@H](O)C(=O)O[C@H]1C[C@@]2(O)[C@@H](OC(=O)c3cccc(OC)c3)[C@@H]3[C@]4(OC(C)=O)CO[C@@H]4C[C@H](O)[C@@]3(C)C(=O)[C@H](OC(=O)CC)C(=C1C)C2(C)C` had a pIC50 in test [1] of 9.05. The Ratio in test [2] was 6; in the test on MCF7 [3] it was 3.9.
In test [1], `CCC(=O)O[C@H]1C(=O)[C@@]2(C)[C@H]([C@H](OC(=O)c3ccccc3)[C@]3(O)C[C@H](OC(=O)[C@H](O)[C@H](C=C(C)C)NC(=O)OC4CCCCC4)C(C)=C1C3(C)C)[C@]1(OC(C)=O)CO[C@@H]1C[C@@H]2O` gave a pIC50 of 8.92. Besides, the Ratio was 13 in test [2] and 6.4 in the test on MCF7 [3].
For the compound `CCC(=O)O[C@H]1C(=O)[C@@]2(C)[C@H]([C@H](OC(=O)c3ccccc3)[C@]3(O)C[C@H](OC(=O)[C@H](O)[C@H](C=C(C)C)NC(=O)C4=CCCCC4)C(C)=C1C3(C)C)[C@]1(OC(C)=O)CO[C@@H]1C[C@@H]2O`, the pIC50 in test [1] is 8.92. In addition, the Ratio in test [2] is reported as 9.2; with MCF7 [3] it was 13.
